Reference: US4250170A, “Antibacterial agents Bu-2349A and B and method of using same” (Bristol-Myers Company, priority 1979, dated 1981)
≈ marks a conversion by molar mass, not a printed value.

Columns and labels:
Proteus rettgeri (Pr-2) = experiment: MIC, two-fold agar dilution; format: cell-based; conditions: Providencia rettgeri, 18 h; Table 3; Mueller-Hinton agar, 10^-4 dilution
[1] = system: Serratia marcescens (Sm-2); experiment: MIC, two-fold agar dilution; format: cell-based; conditions: 18 h, Table 3, Mueller-Hinton agar, 10^-4 dilution
[2] = system: Streptococcus viridans (Sv-1); experiment: MIC, two-fold agar dilution; format: cell-based; conditions: 18 h, Table 3, GC agar, 10^-2 dilution
[3] = system: Enterobacter cloacae (El-35), AAC(3)-3; experiment: MIC, two-fold agar dilution; format: cell-based; conditions: 18 h, Table 3, Mueller-Hinton agar, 10^-4 dilution, enzyme AAC(3)-3
[4] = system: Escherichia coli (Ec-9), AAC(6')-1; experiment: MIC, two-fold agar dilution; format: cell-based; conditions: 18 h, Table 3, Mueller-Hinton agar, 10^-4 dilution, enzyme AAC(6')-1
[5] = system: Klebsiella pneumoniae (Kp-2); experiment: MIC, two-fold agar dilution; format: cell-based; conditions: 18 h, Table 3, Mueller-Hinton agar, 10^-4 dilution, read-out: MIC
Procedure: (§1) The minimum inhibitory concentrations (MIC) of Bu-2349A and B were determined against a wide variety of bacteria by the two-fold agar dilution method. Mueller-Hinton agar medium was generally used for the determination of bacterial MIC except for species of Streptococcus, Neisseria and Hemophilus for which Gonococcus agar medium (GC agar, Nissui Co., Tokyo) was used. Gifu anaerobe agar medium (GAM agar, Eiken Co., Tokyo) was used for anaerobic bacteria. The MIC's were determined after overnight incubation at 37° C. with an initial inoculum equivalent to a 10^-4 dilution of an 18-hour culture for the aerobic and anaerobic bacteria, except for Streptococcus, Neisseria and Hemophilus for which a 10^-2 dilution was used.
(§2) The influence of inoculum size on MIC was tested on Mueller-Hinton agar using an inoculum of […], 10^-2 or 10^-4 dilution of the overnight culture of test organisms.
(§3) The effect of media pH on the MIC's of Bu-2349A was determined at three pH levels (6, 7 and 8) using Mueller-Hinton agar.
(§4) The media effect on the MIC's of Bu-2349A was tested using four kinds of assay media: Mueller-Hinton agar (MHA), nutrient agar (NA), heart infusion agar (HIA) and brain heart infusion agar (BHIA). The pH was adjusted at 7 and a 10^-4 dilution of overnight culture was used for the inoculum.

[6] = system: Escherichia coli ML-1630 (Ec-5), APH(3')-1; experiment: MIC, two-fold agar dilution; format: cell-based; conditions: 18 h, Table 3, Mueller-Hinton agar, 10^-4 dilution, enzyme APH(3')-1
Procedure: as §1, §2, §3, §4

[7] = system: Escherichia coli Juhl (Ec-3); experiment: MIC, two-fold agar dilution; format: cell-based; conditions: 18 h, Table 3, Mueller-Hinton agar, 10^-4 dilution
Procedure: as §1, §2, §3, §4

[8] = system: Pseudomonas aeruginosa (Pa-3); experiment: MIC, two-fold agar dilution; format: cell-based; conditions: 18 h, Table 3, Mueller-Hinton agar, 10^-4 dilution
Procedure: as §1, §2, §3, §4

Proteus morganii (Pg-1) = experiment: MIC, two-fold agar dilution; format: cell-based; conditions: Morganella morganii, 18 h, Table 3; Mueller-Hinton agar, 10^-4 dilution
Procedure: as §1, §2, §3, §4

[9] = system: Staphylococcus aureus 209P (Sa-1); experiment: MIC, two-fold agar dilution; format: cell-based; conditions: 18 h, Table 3, Mueller-Hinton agar, 10^-4 dilution
Procedure: as §1, §2, §3, §4

Proteus mirabilis (Pm-1) = experiment: MIC, two-fold agar dilution; format: cell-based; conditions: Proteus mirabilis, 18 h, Table 3; Mueller-Hinton agar, 10^-4 dilution; read-out: MIC
Procedure: as §1, §2, §3, §4

[10] = system: Bacillus subtilis PCI 219 (Bs-1); experiment: MIC, two-fold agar dilution; format: cell-based; conditions: 18 h, Table 3, Mueller-Hinton agar, 10^-4 dilution
Procedure: as §1, §2, §3, §4

[11] = system: Staphylococcus aureus (Sa-77), ANT(4'); experiment: MIC, two-fold agar dilution; format: cell-based; conditions: 18 h
[12] = system: Mycobacterium ranae ATCC 110 (Mr-1); experiment: MIC, two-fold agar dilution; format: cell-based; conditions: ATCC110, 18 h, Table 3, Mueller-Hinton agar, 10^-4 dilution
[13] = system: Mycobacterium phlei D88 (Mp-1); experiment: MIC, two-fold agar dilution; format: cell-based; conditions: Mycolicibacterium phlei, 18 h; Table 3; Mueller-Hinton agar, 10^-4 dilution
[14] = system: Hemophylus influenzae (He-2); experiment: MIC, two-fold agar dilution; format: cell-based; conditions: 18 h; Table 3; GC agar, 10^-2 dilution
[15] = system: Staphylococcus epidermidis (Si-2), ANT (4'); experiment: MIC, two-fold agar dilution; format: cell-based; conditions: 18 h, Table 3, Mueller-Hinton agar, 10^-4 dilution, enzyme ANT (4')
[16] = system: Streptococcus pneumoniae (Dp-4); experiment: MIC, two-fold agar dilution; format: cell-based; conditions: 18 h, Table 3, GC agar, 10^-2 dilution
[17] = system: Staphylococcus aureus Smith (Sa-2); experiment: MIC, two-fold agar dilution; format: cell-based; conditions: 18 h, Table 3, Mueller-Hinton agar, 10^-4 dilution
[18] = system: Streptococcus pyogenes (Sp-3); experiment: MIC, two-fold agar dilution; format: cell-based; conditions: 18 h, Table 3, GC agar, 10^-2 dilution
[19] = system: Neisseria meningitidis (Nm-1); experiment: MIC, two-fold agar dilution; format: cell-based; conditions: 18 h, Table 3, GC agar, 10^-2 dilution
[20] = system: Neisseria gonorrhoeae (Ng-1); experiment: MIC, two-fold agar dilution; format: cell-based; conditions: 18 h, Table 3, GC agar, 10^-2 dilution
[21] = system: Escherichia coli (Ec-72), ANT(2"); experiment: MIC, two-fold agar dilution; format: cell-based; conditions: 18 h, Table 3, Mueller-Hinton agar, 10^-4 dilution, enzyme ANT(2")
[22] = system: Staphylococcus aureus Terajima (Sa-33); experiment: MIC, two-fold agar dilution; format: cell-based; conditions: 18 h, Table 3, Mueller-Hinton agar, 10^-4 dilution
[23] = system: Escherichia coli NIHJ (Ec-1); experiment: MIC, two-fold agar dilution; format: cell-based; conditions: 18 h, Table 3, Mueller-Hinton agar, 10^-4 dilution
Mycobacterium 607 (M6-1) = experiment: MIC, two-fold agar dilution; format: cell-based; conditions: 18 h, Table 3, Mueller-Hinton agar, 10^-4 dilution
Proteus vulgaris (Pv-1) = experiment: MIC, two-fold agar dilution; format: cell-based; conditions: 18 h, Table 3, Mueller-Hinton agar, 10^-4 dilution
[24] = system: Klebsiella pneumoniae (Kp-33), AAC(3)-3; experiment: MIC, two-fold agar dilution; format: cell-based; conditions: 18 h, Table 3, Mueller-Hinton agar, 10^-4 dilution, enzyme AAC(3)-3
solubility = format: physicochemical; conditions: hydrochloride salt
[25] = system: gram-positive and gram-negative bacteria; experiment: in vitro antibacterial activity, overall statements; format: cell-based
Procedure: as §1, §2, §3, §4

[26] = system: Escherichia coli (Ec-62), AAC(3)- 1; experiment: MIC, two-fold agar dilution; format: cell-based; conditions: 18 h, Table 3, Mueller-Hinton agar, 10^-4 dilution, enzyme AAC(3)- 1
[27] = system: Escherichia coli (Ec-49), APH(3')-2; experiment: MIC, two-fold agar dilution; format: cell-based; conditions: 18 h, Table 3, Mueller-Hinton agar, 10^-4 dilution, enzyme APH(3')-2
[28] = system: Proteus stuartii (Ps-2), AAC(2'); experiment: MIC, two-fold agar dilution; format: cell-based; conditions: 18 h; Table 3; Mueller-Hinton agar, 10^-4 dilution; enzyme AAC(2')

## C=C1OC(OC2C(CO)OC(Oc3ccc(C(=O)NCCCNCCCCN)cc3)C2O)C(O)C(OC2OC(CO)C(OC3OC(C)C(N)C(O)C3NC(=O)C(C)N)C(O)C2O)C1O (stereo not shown) [Bu-2349B]
Proteus rettgeri (Pr-2)
  MIC: 3.1 µg/mL (≈ 3.37 µM)
[1]
  MIC: 50 µg/mL (≈ 54.4 µM)
[2]
  MIC: > 100 µg/mL
[3]
  MIC: 12.5 µg/mL (≈ 13.6 µM)
[4]
  MIC: 0.8 µg/mL (≈ 0.871 µM)
[5]
  MIC: 12.5 µg/mL (≈ 13.6 µM)
[6]
  MIC: 6.3 µg/mL (≈ 6.86 µM)
[7]
  MIC: 6.3 µg/mL (≈ 6.86 µM)
[8]
  MIC: 100 µg/mL (≈ 109 µM)
Proteus morganii (Pg-1)
  MIC: 100 µg/mL (≈ 109 µM)
[9]
  MIC: 12.5 µg/mL (≈ 13.6 µM)
Proteus mirabilis (Pm-1)
  MIC: 25 µg/mL (≈ 27.2 µM)
[10]
  MIC: 25 µg/mL (≈ 27.2 µM)
[11]
  MIC: 50 µg/mL (≈ 54.4 µM)
[12]
  MIC: 25 µg/mL (≈ 27.2 µM)
[13]
  MIC: 25 µg/mL (≈ 27.2 µM)
[14]
  MIC: > 100 µg/mL
[15]
  MIC: 25 µg/mL (≈ 27.2 µM)
[16]
  MIC: > 100 µg/mL
[17]
  MIC: 12.5 µg/mL (≈ 13.6 µM)
[18]
  MIC: > 100 µg/mL
[19]
  MIC: > 100 µg/mL
[20]
  MIC: > 100 µg/mL
[21]
  MIC: 6.3 µg/mL (≈ 6.86 µM)
[22]
  MIC: 6.3 µg/mL (≈ 6.86 µM)
[23]
  MIC: 3.1 µg/mL (≈ 3.37 µM)
Mycobacterium 607 (M6-1)
  MIC: 12.5 µg/mL (≈ 13.6 µM)
Proteus vulgaris (Pv-1)
  MIC: 6.3 µg/mL (≈ 6.86 µM)
[24]
  MIC: 12.5 µg/mL (≈ 13.6 µM)
solubility; methanol, ethanol, dimethylsulfoxide and dimethylformamide
  solubility in methanol, ethanol, dimethylsulfoxide and dimethylformamide: slightly soluble
solubility; other common organic solvents
  solubility in other common organic solvents: practically insoluble
solubility; water
  solubility in water: soluble
[25]; gram-positive and gram-negative bacteria, including aminoglycoside-resistant bacteria, summary statement
  inhibitory activity both in vitro and in vivo: marked inhibitory activity
[25]; including bacteria which produce aminoglycoside-modifying enzymes
  antibacterial activity: active
[26]
  MIC: 12.5 µg/mL (≈ 13.6 µM)
[27]
  MIC: 3.1 µg/mL (≈ 3.37 µM)
[28]
  MIC: 1.6 µg/mL (≈ 1.74 µM)
